Our source for the IC50 values is patent publication US20050009840A1 (SUGEN, INC., priority 2003, published 2005).

What is called IC50 is the midpoint of a concentration-inhibition curve.

T1 sequence (P08581 1078-1345 limits assumed): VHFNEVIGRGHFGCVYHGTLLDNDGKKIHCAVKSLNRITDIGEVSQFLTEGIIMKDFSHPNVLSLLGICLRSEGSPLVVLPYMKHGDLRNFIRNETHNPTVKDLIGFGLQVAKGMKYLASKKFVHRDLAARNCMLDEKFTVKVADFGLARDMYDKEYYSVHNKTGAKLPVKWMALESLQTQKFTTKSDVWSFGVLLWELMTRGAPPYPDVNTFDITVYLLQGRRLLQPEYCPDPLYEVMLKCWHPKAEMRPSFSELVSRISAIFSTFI

This experiment has as its target T1, Met kinase domain (GST fusion protein) (Homo sapiens, UniProt P08581).
T1 construct: Purified GST fusion protein containing the Met kinase domain
Briefly: Met transphosphorylation assay (ELISA, poly(glu-tyr) substrate).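 Further: Cell-free ELISA with plate-bound poly(Glu:Tyr 4:1) phosphorylated by GST-fused Met kinase domain plus ATP and Mn2+, phosphotyrosine detected by anti-phosphotyrosine antibody with HRP and ABTS read-out.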 Type of experiment: biochemical. The conditions noted are these: read-out: Met IC50. (In general: An ELISA detects its analyte on a solid surface through an enzyme-linked reagent.)
On to `Nc1ncc(-c2cccc(NS(=O)(=O)CCN3CCN(C(=O)CO)CC3)c2)nc1OCc1c(F)ccc(F)c1Cl` [II-29], for which the IC50 is 1.82 µM.

In the case of `Nc1ncc(-c2cccc(NS(=O)(=O)CCNCC3CC3)c2)nc1OCc1c(F)ccc(F)c1Cl` [II-30, 2-(Cyclopropylmethyl-amino)-ethanesulfonic acid {3-[5-amino-6-(2-chloro-3,6-difluoro-benzyloxy)-pyrazin-2-yl]-phenyl}-amide], the IC50 was determined as 1.84 µM.

In the case of `Nc1ncc(-c2cccc(NS(=O)(=O)CCN3CC[C@@H](O)C3)c2)nc1OCc1c(F)ccc(F)c1Cl` [II-31, 2-[(3R)-3-Hydroxy-pyrrolidin-1-yl]-ethanesulfonic acid {3-[5-amino-6-(2-chloro-3,6-difluoro-benzyloxy)-pyrazin-2-yl]-phenyl}-amide], the IC50 was 2.16 µM.

Consider `Nc1ncc(-c2cccc(NS(=O)(=O)CCNC3CC3)c2)nc1OCc1c(F)ccc(F)c1Cl` [II-32, 2-Cyclopropylamino-ethanesulfonic acid {3-[5-amino-6-(2-chloro-3,6-difluoro-benzyloxy)-pyrazin-2-yl]-phenyl}-amide], for which the IC50 worked out at 2.13 µM.

Take `Nc1ncc(-c2ccc(C(=O)N3CCC[C@@H]3CN3CCCC3)cc2)nc1OCc1c(F)ccc(F)c1Cl` [II-34, {4-[5-Amino-6-(2-chloro-3,6-difluoro-benzyloxy)-pyrazin-2-yl]-phenyl)-[(2R)-2-pyrrolidin-1-ylmethyl-pyrrolidin-1-yl]-methanone]: the IC50 is 0.15 µM.

As for `Nc1ncc(-c2ccc(C(=O)NCCN3CCCC3)cc2)nc1OCc1c(F)ccc(F)c1Cl` [II-35, 4-[5-Amino-6-(2-chloro-3,6-difluoro-benzyloxy)-pyrazin-2-yl]-N-(2-pyrrolidin-1-yl-ethyl)-benzamide], the IC50 was 0.13 µM.

For the compound `Nc1ncc(-c2ccc(C(=O)N3CC[C@H](N)C3)cc2)nc1OCc1c(F)ccc(F)c1Cl` [II-36, {4-[5-Amino-6-(2-chloro-3,6-difluoro-benzyloxy)-pyrazin-2-yl]-phenyl}-[(3S)-3-amino-pyrrolidin-1-yl]-methanone], the IC50 turned out to be 0.37 µM.

Regarding `CC(=O)N1CCN(CCNC(=O)c2ccc(-c3cnc(N)c(OCc4c(F)ccc(F)c4Cl)n3)cc2)CC1` [II-37, N-[2-(4-Acetyl-piperazin-1-yl)-ethyl]-4-[5-amino-6-(2-chloro-3,6-difluoro-benzyloxy)-pyrazin-2-yl]-benzamide], the IC50 came out at 1.35 µM.

As for `Nc1ncc(-c2ccc(C(=O)NCCCN3CCCC3)cc2)nc1OCc1c(F)ccc(F)c1Cl` [II-38, 4-[5-Amino-6-(2-chloro-3,6-difluoro-benzyloxy)-pyrazin-2-yl]-N-(3-pyrrolidin-1-yl-propyl)-benzamide], the IC50 came out at 0.58 µM.

For `CN(C)[C@H]1CCN(C(=O)c2ccc(-c3cnc(N)c(OCc4c(F)ccc(F)c4Cl)n3)cc2)C1` [II-39, {4-[5-Amino-8-(2-chloro-3,6-difluoro-benzyloxy)-pyrazin-2-yl]-phenyl}-[(3S)-3-dimethylamino-pyrrolidin-1-yl]-methanone], the IC50 is 0.67 µM.

Regarding `Nc1ncc(-c2ccc(C(=O)NCCCN3CCOCC3)cc2)nc1OCc1c(F)ccc(F)c1Cl` [II-43, 4-[5-Amino-6-(2-chloro-3,6-difluoro-benzyloxy)-pyrazin-2-yl]-N-(3-morpholin-4-yl-propyl)-benzamide], the IC50 worked out at 0.59 µM.

As for `Nc1ncc(-c2ccc(C(=O)NCCN3CCOCC3)cc2)nc1OCc1c(F)ccc(F)c1Cl` [II-45, 4-[5-Amino-6-(2-chloro-3,6-difluoro-benzyloxy)-pyrazin-2-yl]-N-(2-morpholin-4-yl-ethyl)-benzamide], the IC50 was 1.11 µM.

For the compound `CN1CCN(C(=O)c2ccc(-c3cnc(N)c(OCc4c(F)ccc(F)c4Cl)n3)cc2)CC1` [II-46, {4-[5-Amino-6-(2-chloro-3,6-difluoro-benzyloxy)-pyrazin-2-yl]-phenyl}-(4-methyl-piperazin-1-yl)-methanone], the IC50 was determined as 0.68 µM.

Regarding `CN1CCN(C(=O)c2cccc(-c3cnc(N)c(OCc4c(F)ccc(F)c4Cl)n3)c2)CC1` [II-48, {3-[5-Amino-6-(2-chloro-3,6-difluoro-benzyloxy)-pyrazin-2-yl]-phenyl}-(4-methyl-piperazin-1-yl)-methanone], the IC50 worked out at 2.85 µM.

For `Nc1ncc(-c2cccc(C(=O)N3CC[C@@H](N)C3)c2)nc1OCc1c(F)ccc(F)c1Cl` [II-49, {3-[5-Amino-6-(2-chloro-3,6-difluoro-benzyloxy)-pyrazin-2-yl]-phenyl}-[(3R)-3-amino-pyrrolidin-1-yl]-methanone], the IC50 is 1.02 µM.

In the case of `Nc1ncc(-c2cccc(C(=O)N3CC[C@H](N)C3)c2)nc1OCc1c(F)ccc(F)c1Cl` [II-50, {3-[5-Amino-6-(2-chloro-3,6-difluoro-benzyloxy)-pyrazin-2-yl]-phenyl}-[(3S)-3-amino-pyrrolidin-1-yl]-methanone], the IC50 was 0.91 µM.

For the compound `Nc1ncc(-c2cccc(C(=O)NCCCN3CCOCC3)c2)nc1OCc1c(F)ccc(F)c1Cl` [II-52, 3-[5-Amino-6-(2-chloro-3,6-difluoro-benzyloxy)-pyrazin-2-yl]-N-(3-morpholin-4-yl-propyl)-benzamide], the IC50 is 4.2 µM.

Take `Nc1ncc(-c2cccc(C(=O)NCCN3CCCC3)c2)nc1OCc1c(F)ccc(F)c1Cl` [II-55, 3-[5-Amino-6-(2-chloro-3,6-difluoro-benzyloxy)-pyrazin-2-yl]-N-(2-pyrrolidin-1-yl-ethyl)-benzamide]: the IC50 came out at 1.6 µM.

On to `Nc1ncc(-c2cccc(C(=O)N3CCC[C@H]3CN3CCCC3)c2)nc1OCc1c(F)ccc(F)c1Cl` [II-57, {3-[5-Amino-6-(2-chloro-3,6-difluoro-benzyloxy)-pyrazin-2-yl]-phenyl}-[(2S)-pyrrolidin-1-ylmethyl-pyrrolidin-1-yl]-methanone], for which the IC50 was 0.63 µM.

Consider `Nc1ncc(-c2cccc(C(=O)NCCN3CCOCC3)c2)nc1OCc1c(F)ccc(F)c1Cl` [II-58, 3-[5-Amino-6-(2-chloro-3,6-difluoro-benzyloxy)-pyrazin-2-yl]-N-(2-morpholin-4-yl-ethyl)-benzamide], for which the IC50 is 2.5 µM.

For the compound `CC(=O)N1CCN(CCNC(=O)c2cccc(-c3cnc(N)c(OCc4c(F)ccc(F)c4Cl)n3)c2)CC1` [II-59, N-[2-(4-Acetyl-piperazin-1-yl)-ethyl]-3-[5-amino-6-(2-chloro-3,6-difluoro-benzyloxy)-pyrazin-2-yl]-benzamide], the IC50 was found to be 2.77 µM.

`Nc1ncc(-c2cccc(C(=O)NCCCN3CCCC3)c2)nc1OCc1c(F)ccc(F)c1Cl` [II-60, 3-[5-Amino-6-(2-chloro-3,6-difluoro-benzyloxy)-pyrazin-2-yl]-N-(3-pyrrolidin-1-yl-pyropyl)-benzamide]: the IC50 stood at 1.48 µM.

As to `Nc1ncc(-c2ccc3[nH]cc(CN4CCCC4)c3c2)nc1OCc1c(F)ccc(F)c1Cl` [II-62, 3-(2-Chloro-3,6-difluoro-benzyloxy)-5-(3-pyrrolidin-1-ylmethyl-1H-indol-5-yl)-pyrazin-2-ylamine], the IC50 came to 0.35 µM.

Take `CCN(CC)Cc1c[nH]c2ccc(-c3cnc(N)c(OCc4c(F)ccc(F)c4Cl)n3)cc12` [II-63, 3-(2-Chloro-3,6-difluoro-benzyloxy)-5-(3-diethylaminomethyl-1H-indol-5-yl)-pyrazin-2-ylamine]: the 50% inhibitory concentration (IC50) came out at 0.73 µM.

Regarding `CC(=O)N1CCN(Cc2c[nH]c3ccc(-c4cnc(N)c(OCc5c(F)ccc(F)c5Cl)n4)cc23)CC1` [II-64, 1-(4-{5-[5-Amino-6-(2-chloro-3,6-difluoro-benzyloxy)-pyrazin-2-yl]-1H-indol-3-ylmethyl}-piperazin-1-yl)-ethanone], the IC50 came to 1.5 µM.

With `C[C@@H]1CN(Cc2c[nH]c3ccc(-c4cnc(N)c(OCc5c(F)ccc(F)c5Cl)n4)cc23)C[C@H](C)O1` [II-65, 3-(2-Chloro-3,6-difluoro-benzyloxy)-5-[3-(2,6-dimethyl-morpholin-4-ylmethyl)-1H-indol-5-yl]-pyrazin-2-ylamine], the IC50 was found to be 2.4 µM.

Regarding `CC(=O)N[C@H]1CCN(Cc2c[nH]c3ccc(-c4cnc(N)c(OCc5c(F)ccc(F)c5Cl)n4)cc23)C1` [II-66, N-(1-{5-[5-Amino-6-(2-chloro-3,6-difluoro-benzyloxy)-pyrazin-2-yl]-1H-indol-3-ylmethyl}-(3S)-pyrrolidin-3-yl)-acetamide], the IC50 came out at 0.55 µM.

Consider `Nc1ncc(-c2ccc3[nH]cc(CN4CCCCC4)c3c2)nc1OCc1c(F)ccc(F)c1Cl` [II-67, 3-(2-Chloro-3,6-difluoro-benzyloxy)-5-(3-piperidin-1-ylmethyl-1H-indol-5-yl)-pyrazin-2-ylamine], for which the IC50 is 0.51 µM.

As to `Nc1ncc(-c2ccc3[nH]cc(CN4CCOCC4)c3c2)nc1OCc1c(F)ccc(F)c1Cl` [II-68, 3-(2-Chloro-3,6-difluoro-benzyloxy)-5-(3-morpholin-4-ylmethyl-1H-indol-5-yl)-pyrazin-2-ylamine], the IC50 worked out at 1.15 µM.

As to `CC(C)C(Oc1nc(-c2ccc(OCCN3CCOCC3)cc2)cnc1N)c1c(F)ccc(F)c1Cl` (stereo not shown) [II-69, 3-[1-(2-Chloro-3,6-difluoro-phenyl)-2-methyl-propoxy]-5-[4-(2-morpholin-4-yl-ethoxy)-phenyl]-pyrazin-2-ylamine], the IC50 was found to be 10.6 µM.

`CC(Oc1nc(-c2ccc(OCCN3CCOCC3)cc2)cnc1N)c1c(F)ccc(F)c1Cl` (stereo not shown) [II-70]: the IC50 came out at 0.51 µM.

On to `CC(Oc1nc(-c2ccc(OCCN3CCOCC3)cc2)cnc1N)c1c(Cl)ccc(F)c1Cl` (stereo not shown) [II-71, 3-[1-(2,6-Dichloro-3-fluoro-phenyl)-ethoxy]-5-[4-(2-morpholin-4-yl-ethoxy)-phenyl]-pyrazin-2-ylamine; compound with trifluoro-acetic acid], for which the IC50 came to 0.3 µM.

For `CC(Oc1nc(-c2cccc(C(=O)O)c2)cnc1N)c1c(Cl)ccc(F)c1Cl` (stereo not shown) [II-83, 3-{5-amino-6-[1-(2,6-dichloro-3-fluoro-phenyl)-ethoxy]-pyrazin-2-yl}benzoic acid], the IC50 turned out to be 1.36 µM.

Take `CC(Oc1nc(-c2cccc(C(=O)N3CC[C@H](N)C3)c2)cnc1N)c1c(Cl)ccc(F)c1Cl` (stereo partly drawn) [II-84, (3-{5-Amino-6-[1-(2,6-dichloro-3-fluoro-phenyl)-ethoxy]-pyrazin-2-yl}-phenyl)-[(3S)-3-amino-pyrrolidin-1-yl)-m-ethanone]: the IC50 came out at 0.069 µM.
